Measured values published in ChEMBL document CHEMBL1208697 (Bioorg Med Chem Lett, 2010).
pIC50: −log10 of the molar value.

Assays:
Rattus norvegicus [1] = assay: Antiinflammatory activity in rat assessed as inhibition of carrageenan-induced paw edema after 3 hrs; assay type: functional
Rattus norvegicus [2] = assay: Antiinflammatory activity in rat assessed as inhibition of carrageenan-induced paw edema at 100 mg/kg, po after 3 hrs; assay type: functional
[3] = target: T1, Prostaglandin G/H synthase 1 (Ovis aries, UniProt P05979)
T1 sequence (P05979 whole entry): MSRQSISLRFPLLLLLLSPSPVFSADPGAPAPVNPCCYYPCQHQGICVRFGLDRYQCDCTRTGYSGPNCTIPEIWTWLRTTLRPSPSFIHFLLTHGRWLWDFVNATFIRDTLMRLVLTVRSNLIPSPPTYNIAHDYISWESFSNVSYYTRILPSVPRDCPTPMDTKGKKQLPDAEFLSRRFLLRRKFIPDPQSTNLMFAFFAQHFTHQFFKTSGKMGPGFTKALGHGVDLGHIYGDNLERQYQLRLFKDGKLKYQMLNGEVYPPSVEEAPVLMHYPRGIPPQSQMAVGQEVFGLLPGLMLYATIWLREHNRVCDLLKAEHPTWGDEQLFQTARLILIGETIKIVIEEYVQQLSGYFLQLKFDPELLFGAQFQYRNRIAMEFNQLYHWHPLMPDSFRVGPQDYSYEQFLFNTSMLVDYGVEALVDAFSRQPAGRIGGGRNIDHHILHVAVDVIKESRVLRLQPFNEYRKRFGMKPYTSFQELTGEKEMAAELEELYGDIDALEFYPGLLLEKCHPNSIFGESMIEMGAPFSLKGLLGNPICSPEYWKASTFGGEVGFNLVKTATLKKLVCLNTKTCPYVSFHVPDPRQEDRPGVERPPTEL
Description: Inhibition of sheep COX1 by enzyme immunoassay

SMILES	ED50 (Rattus norvegicus [1]) [µmol/kg]	inhibition in vivo at 100 mg/kg (Rattus norvegicus [2]) [%]	pIC50 [3]
CO/N=[N+](/[O-])c1ccc(-c2cc(C(F)(F)F)nn2-c2ccc(S(N)(=O)=O)cc2)cc1	241	47.7	4.92
CC(=O)OC(C)O/N=[N+](/[O-])c1ccc(-c2cc(C(F)(F)F)nn2-c2ccc(S(N)(=O)=O)cc2)cc1 (stereo unspecified)		18.6	4.95
CC(=O)OC(C)O/N=[N+](/[O-])c1ccc(-c2cc(C(F)(F)F)nn2-c2ccc(S(C)(=O)=O)cc2)cc1 (stereo unspecified)		5.1	4.77
NS(=O)(=O)c1ccc(-n2nc(C(F)(F)F)cc2-c2ccc(/[N+]([O-])=N\O)cc2)cc1	168	65.7	
CO/N=[N+](/[O-])c1ccc(-c2cc(C(F)(F)F)nn2-c2ccc(S(C)(=O)=O)cc2)cc1		9.8	4.98
